Measurements published in PubChem BioAssay AID2060498 (Molecular Pharmacology Branch, DTP, NCI, 2025).

Tested on: 171881-019-R-J1-PDC tumor spheroids, viability
Assay: Anticancer human tumor 171881-019-R-J1-PDC patient-derived invasive breast carcinoma cell line growth inhibition [GQUAD]
Settings: spheroids with HUVEC and MSC; for IC50: curve of first compound; for viability, T/C: stronger effect = lower value; active = viability on the fitted dose curve at most 10% of control; inactive = the rest
How it was run: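 Tumor cells were grown as complex spheroids with HUVEC endothelial cells and mesenchymal stem cells as stroma. G-quadruplex stabilizers were combined with targeted agents over half-log dilutions from near the clinical Cmax, or from 10 microM.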

[1] = second compound 0.0316 µM, first compound 0.0316 µM
[2] = second compound 0.0316 µM, first compound 0.1 µM
[3] = second compound 0.0316 µM, first compound 0.316 µM
[4] = second compound 0.0316 µM, first compound 1 µM
[5] = second compound 0.0316 µM, first compound 3.16 µM
[6] = second compound 0.0316 µM, first compound 10 µM
[7] = second compound 0.1 µM, first compound 0.0316 µM
[8] = second compound 0.1 µM, first compound 0.1 µM
[9] = second compound 0.1 µM, first compound 0.316 µM
[10] = second compound 0.1 µM, first compound 1 µM
[11] = second compound 0.1 µM, first compound 3.16 µM
[12] = second compound 0.1 µM, first compound 10 µM
[13] = second compound 0.316 µM, first compound 0.0316 µM
[14] = second compound 0.316 µM, first compound 0.1 µM
[15] = second compound 0.316 µM, first compound 0.316 µM
[16] = second compound 0.316 µM, first compound 1 µM
[17] = second compound 0.316 µM, first compound 3.16 µM
[18] = second compound 0.316 µM, first compound 10 µM
[19] = second compound 1 µM, first compound 0.0316 µM
[20] = second compound 1 µM, first compound 0.1 µM
[21] = second compound 1 µM, first compound 0.316 µM
[22] = second compound 1 µM, first compound 1 µM
[23] = second compound 1 µM, first compound 3.16 µM
[24] = second compound 1 µM, first compound 10 µM
[25] = second compound 3.16 µM, first compound 0.0316 µM
[26] = second compound 3.16 µM, first compound 0.1 µM
[27] = second compound 3.16 µM, first compound 0.316 µM
[28] = second compound 3.16 µM, first compound 1 µM
[29] = second compound 3.16 µM, first compound 3.16 µM
[30] = second compound 3.16 µM, first compound 10 µM
[31] = second compound 10 µM, first compound 0.0316 µM
[32] = second compound 10 µM, first compound 0.1 µM
[33] = second compound 10 µM, first compound 0.316 µM
[34] = second compound 10 µM, first compound 1 µM
[35] = second compound 10 µM, first compound 3.16 µM
[36] = second compound 10 µM, first compound 10 µM
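Note: spheroids exposed to compounds for 7 days.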
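Throughout, for viability, T/C: 100% = DMSO vehicle control viability.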

CCCS(=O)(=O)Nc1ccc(F)c(C(=O)c2c[nH]c3ncc(-c4ccc(Cl)cc4)cc23)c1F + CN(C)c1ccc(Nc2c3ccc(NC(=O)CCN4CCCC4)cc3nc3cc(NC(=O)CCN4CCCC4)ccc23)cc1
9480 nM: IC50 (second compound 0.1 µM)
inactive: viability, T/C [1] 99.8% | viability, T/C [2] 108% | viability, T/C [3] 102% | viability, T/C [4] 116% | viability, T/C [5] 93.7% | viability, T/C [6] 49.2% | viability, T/C [7] 76.9% | viability, T/C [8] 100% | viability, T/C [9] 84.2% | viability, T/C [10] 104% | viability, T/C [11] 94.5% | viability, T/C [12] 47.9% | viability, T/C [13] 43.8% | viability, T/C [14] 53.4% | viability, T/C [15] 55.8% | viability, T/C [16] 44.1% | viability, T/C [17] 56.2% | viability, T/C [18] 25.8%
active: viability, T/C [19] 5.16% | viability, T/C [20] 3.85% | viability, T/C [21] 4.58% | viability, T/C [22] 3.58% | viability, T/C [23] 3.49% | viability, T/C [24] 3.08% | viability, T/C [25] 0.35% | viability, T/C [26] 0.31% | viability, T/C [27] 0.72% | viability, T/C [28] 0.43% | viability, T/C [29] 0.5% | viability, T/C [30] 0.53% | viability, T/C [31] 0.11% | viability, T/C [32] 0.23% | viability, T/C [33] 0.24% | viability, T/C [34] 0.32% | viability, T/C [35] 0.57% | viability, T/C [36] 0.3%
9820 nM: IC50 (second compound 0.0316 µM)
3260 nM: IC50 (second compound 0.316 µM)
< 31.6 nM: IC50 (second compound 1 µM) | IC50 (second compound 3.16 µM) | IC50 (second compound 10 µM)

COc1ncnc(C2CC2)c1-c1ncc2cnn(Cc3ccc(-c4nc(C(F)(F)F)cn4C(C)C)cc3)c2n1 + CN(C)c1ccc(Nc2c3ccc(NC(=O)CCN4CCCC4)cc3nc3cc(NC(=O)CCN4CCCC4)ccc23)cc1
active: viability, T/C [19] 3.06% | viability, T/C [20] 1.98% | viability, T/C [21] 2.28% | viability, T/C [22] 1.99% | viability, T/C [23] 1.79% | viability, T/C [24] 1.02% | viability, T/C [25] 0.27% | viability, T/C [26] 0.25% | viability, T/C [27] 0.36% | viability, T/C [28] 0.22% | viability, T/C [29] 0.34% | viability, T/C [30] 0.18% | viability, T/C [31] 0.13% | viability, T/C [32] 0.32% | viability, T/C [33] 0.16% | viability, T/C [34] 0.41% | viability, T/C [35] 0.41% | viability, T/C [36] 0.19%
> 10000 nM: IC50 (second compound 0.0316 µM) | IC50 (second compound 0.1 µM)
< 31.6 nM: IC50 (second compound 0.316 µM) | IC50 (second compound 1 µM) | IC50 (second compound 3.16 µM) | IC50 (second compound 10 µM)
inactive: viability, T/C [1] 86.7% | viability, T/C [2] 100% | viability, T/C [3] 101% | viability, T/C [4] 104% | viability, T/C [5] 92.8% | viability, T/C [6] 86.3% | viability, T/C [7] 97% | viability, T/C [8] 93.3% | viability, T/C [9] 90.3% | viability, T/C [10] 88.9% | viability, T/C [11] 80.3% | viability, T/C [12] 67.1% | viability, T/C [13] 39.9% | viability, T/C [14] 37% | viability, T/C [15] 35.6% | viability, T/C [16] 28.8% | viability, T/C [17] 24.3% | viability, T/C [18] 11.6%

O=C(NO)c1cnc(N2CCN(S(=O)(=O)c3ccc4ccccc4c3)CC2)nc1 + CN(C)c1ccc(Nc2c3ccc(NC(=O)CCN4CCCC4)cc3nc3cc(NC(=O)CCN4CCCC4)ccc23)cc1
inactive: viability, T/C [1] 101% | viability, T/C [2] 73.7% | viability, T/C [3] 35.6% | viability, T/C [7] 86.7% | viability, T/C [8] 80.1% | viability, T/C [9] 34.8% | viability, T/C [13] 44.2% | viability, T/C [14] 37.8% | viability, T/C [15] 10.6%
< 31.6 nM: IC50 (second compound 0.316 µM) | IC50 (second compound 1 µM) | IC50 (second compound 3.16 µM) | IC50 (second compound 10 µM)
197 nM: IC50 (second compound 0.0316 µM)
active: viability, T/C [4] 0.61% | viability, T/C [5] 0.11% | viability, T/C [6] 0.11% | viability, T/C [10] 0.74% | viability, T/C [11] 0.22% | viability, T/C [12] 0.38% | viability, T/C [16] 0.25% | viability, T/C [17] 0.08% | viability, T/C [18] 0.21% | viability, T/C [19] 3.24% | viability, T/C [20] 1.83% | viability, T/C [21] 0.75% | viability, T/C [22] 0.1% | viability, T/C [23] 0.06% | viability, T/C [24] 0.31% | viability, T/C [25] 0.23% | viability, T/C [26] 0.4% | viability, T/C [27] 0.28% | viability, T/C [28] 0.06% | viability, T/C [29] 0.08% | viability, T/C [30] 0.1% | viability, T/C [31] 0.07% | viability, T/C [32] 0.12% | viability, T/C [33] 0.38% | viability, T/C [34] 0.34% | viability, T/C [35] 0.29% | viability, T/C [36] 0.15%
215 nM: IC50 (second compound 0.1 µM)

COc1ccc([C@@H](O)c2cc(-c3ncnc4cc(N5CCOCC5)ccc34)c(F)cc2Cl)nn1 + Cc1[nH]c2ccc(F)cc2c1-c1nc2c3cccnc3c3ncccc3c2[nH]1
inactive: viability, T/C [1] 107% | viability, T/C [2] 81.3% | viability, T/C [3] 74.5% | viability, T/C [4] 45% | viability, T/C [5] 14.7% | viability, T/C [7] 87.2% | viability, T/C [8] 84.5% | viability, T/C [9] 70.1% | viability, T/C [10] 44.6% | viability, T/C [11] 14% | viability, T/C [13] 85.6% | viability, T/C [14] 90.2% | viability, T/C [15] 56.5% | viability, T/C [16] 41% | viability, T/C [17] 15.5% | viability, T/C [19] 94.2% | viability, T/C [20] 67% | viability, T/C [21] 64.4% | viability, T/C [22] 32.3% | viability, T/C [23] 12.2% | viability, T/C [25] 28.9% | viability, T/C [26] 15.3% | viability, T/C [27] 14.5% | viability, T/C [31] 37.8% | viability, T/C [32] 45.4% | viability, T/C [33] 26.6% | viability, T/C [34] 17.3%
active: viability, T/C [6] 5.38% | viability, T/C [12] 5.6% | viability, T/C [18] 5.95% | viability, T/C [24] 6.67% | viability, T/C [28] 9.07% | viability, T/C [29] 8.31% | viability, T/C [30] 4.66% | viability, T/C [35] 9.52% | viability, T/C [36] 5.39%
573 nM: IC50 (second compound 0.316 µM)
< 31.6 nM: IC50 (second compound 3.16 µM) | IC50 (second compound 10 µM)
740 nM: IC50 (second compound 0.0316 µM)
756 nM: IC50 (second compound 0.1 µM)
429 nM: IC50 (second compound 1 µM)
